# According to patent US20050107289A1, “Anti-microbial peptides and compositions” (priority 2001, published 2005):
# Like-named read-outs stand apart in the source and are kept apart here. Non-standard residues stand in square brackets, D forms with d. Residues, ends and D or L forms follow the SMILES beside them. NMeL = CN[C@@H](CC(C)C)C(=O)O
# Legend:
# [1] = test system: Bacillus cereus ATCC 11778; format: cell-based
# Protocol: (§1) The antimicrobial activity of the peptides was determined using a broth dilution assay essentially as descried in the guidelines of the National Committee for […] (NCCLS) [National Committee for Clinical Laboratory Standards. Methods for dilution antimicrobial susceptibility tests for bacteria that grow aerobically. Fourth edition. Approved Standard (1997). Document M7-A4. […] The microdilution method has the advantages of requiring less amount of peptide for each assay and the possibility of multiple simultaneous inoculations and was used in most studies. Several of the strains of bacteria tested are further described in Table 3.
# (§2) Preparation of peptide solutions. Stock peptide solutions were prepared in 5% DMSO in aq. sucrose (9%). Determination of peptide concentrations was done by quantitative HPLC analysis using known concentrations of internal standards and/or by measuring UV absorption of tryptophane-containing peptide solutions in H2O (λ=280 εTrp: 5690). Serial 2-fold dilutions were made in the above DMSO/aq. sucrose (9%) mixture with concentrations ranging approximately 400-2 μg/ml and aliquots were dispensed in test tubes (100 μl) for the macrodilution test or in microtiter plates (20 μl) for the microdilution assays.
# (§3) Inoculum preparation. Overnight cultures of different microorganisms grown in suitable media were diluted 4000 times to an approximate inoculum size of 2.5×10^5 cfu/ml.
# (§4) Macrodilution method. Macrodilution methods were performed using procedures similar to those described in the National Committee for Clinical Laboratory Standards. Methods for dilution antimicrobial susceptibility tests for bacteria that grow aerobically. Fourth edition. Approved Standard (1997). Document M7-A4. (NCCLS,Villanova, Pa., 1997). Two ml aliquots of the above inoculum were dispensed to test tubes containing different peptide solutions.
# (§5) Microdilution method. Microdilution methods were performed using procedures similar to those described in the National Committee for Clinical Laboratory Standards. Methods for dilution antimicrobial susceptibility tests for bacteria that grow aerobically. Fourth edition. Approved Standard (1997). Document M7-A4.
# [2] = test system: Streptococcus pneumoniae (ATCC 6301); format: cell-based
# Protocol: as §1, §2, §3, §4, §5
# [3] = test system: S. aureus (MRSA) ATCC 33591; format: cell-based, Staphylococcus aureus; conditions: for MRSA MIC / S. aureus (MRSA) MIC: ATCC 33591; for MRSA (in vitro activity): Table 9
# In short: (§6)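 Broth macro- or microdilution MIC per NCCLS M7-A4. Peptides were serially 2-fold diluted in 5% DMSO/9% aqueous sucrose, about 400–2 μg/ml (dilution-series concentrations). Overnight cultures were diluted 4000-fold to an inoculum of about 2.5×10^5 cfu/ml.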
# murine red blood cells = test: Red blood cell hemolysis; format: cell-based, mouse; conditions: for Hemolysis HD50: red cells of murine
# In short: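 Hemolysis read as A560 of supernatant, scaled between saline (0%) and 1% Triton X-100 (100%) controls; peptides were serially diluted onto 5% murine red cells in saline plus 10% FBS and incubated 30 min at 37° C.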
# [4] = test system: vancomycin-resistant Enterococus faecalis (VRE)(ATCC 51575); format: cell-based, Enterococcus faecalis; parameters: key to VRE (in vitro activity): peptide concentration in μg/ml (broth dilution assay); conditions: for VRE MIC: ATCC 51575; for VRE (in vitro activity): Table 9
# In short: as §6
# E. coli JM109(DE3) = format: cell-based, Escherichia coli; conditions: JM109
# Protocol: as §1, §2, §3, §4, §5
# [5] = media a: anti-microbial media-3 (AM-3)
Compound,B. cerius MIC [1],S. pneum. MIC [2],MRSA MIC [3],S. aureus (MRSA) MIC [3],MRSA (in vitro activity) ([3]; media b: cation adjusted Meuller Hinton broth (MHBII)),RBC Hemolysis (HD50) (murine red blood cells),VRE MIC [4],VRE (in vitro activity) ([4]; media c: Brain Heart Infusion (BHI)),E. coli MIC (E. coli JM109(DE3)),MRSA MIC ([3]; Table 10),Hemolysis HD50 (murine red blood cells),"MRSA (in vitro activity) [3, 5]",VRE (in vitro activity) ([4]; media a: AM-3)
"CC(C)C[C@H]1NC(=O)[C@H](CO)NC(=O)[C@@H](CCCCN)NC(=O)[C@H](Cc2c[nH]c3ccccc23)NC(=O)[C@@H](CC(C)C)NC(=O)[C@H](Cc2c[nH]c3ccccc23)NC1=O [SEQ ID NO:28, cyclo-(D-Lys-Ser-D-Leu-Trp-D-Leu-Trp)] (cyclo(S[dL]W[dL]W[dK]))",15 µg/mL,20 µg/mL,100 µg/mL,75 µg/mL,100,90,100 µg/mL,100,100 µg/mL,–,–,–,–
"CC(C)C[C@H]1NC(=O)[C@H](CCCCN)NC(=O)[C@@H](CC(C)C)NC(=O)[C@H](Cc2c[nH]c3ccccc23)NC(=O)[C@@H](CC(C)C)NC(=O)[C@H](Cc2c[nH]c3ccccc23)NC(=O)[C@@H](CC(C)C)NC(=O)[C@H](Cc2c[nH]c3ccccc23)NC1=O [SEQ ID NO:3, cyclo[-Lys-D-Leu-(Trp-D-Leu)3]] (cyclo(K[dL]W[dL]W[dL]W[dL]))",50 µg/mL,50 µg/mL,–,–,–,–,80 µg/mL,–,100 µg/mL,ppt,20 µg/mL,–,–
"CC(C)C[C@H]1NC(=O)[C@H](Cc2c[nH]c3ccccc23)NC(=O)[C@@H](CO)NC(=O)[C@H](CCCCN)NC(=O)[C@@H](CO)NC(=O)[C@H](Cc2c[nH]c3ccccc23)NC(=O)[C@@H](CC(C)C)NC(=O)[C@H](Cc2c[nH]c3ccccc23)NC1=O [SEQ ID NO:5, cyclo-(D-Ser-Lys-D-Ser-Trp-D-Leu-Trp-D-Leu-Trp)] (cyclo(K[dS]W[dL]W[dL]W[dS]))",> 30 µg/mL,30 µg/mL,20 µg/mL,10 µg/mL,–,30,20 µg/mL,–,100 µg/mL,–,–,20,20
"CC(C)C[C@H]1NC(=O)[C@H](Cc2c[nH]c3ccccc23)NC(=O)[C@@H](Cc2c[nH]cn2)NC(=O)[C@H](CCCCN)NC(=O)[C@@H](CCC(=O)O)NC(=O)[C@H](Cc2c[nH]c3ccccc23)NC(=O)[C@@H](CC(C)C)NC(=O)[C@H](Cc2c[nH]c3ccccc23)NC1=O [SEQ ID NO:16, cyclo-(D-Glu-Lys-D-His-Trp-D-Leu-Trp-D-Leu-Trp)] (cyclo(K[dH]W[dL]W[dL]W[dE]))",85 µg/mL,50 µg/mL,100 µg/mL,100 µg/mL,–,>100,100 µg/mL,–,100 µg/mL,–,–,100,100
"CC(C)C[C@H]1NC(=O)[C@H](Cc2c[nH]c3ccccc23)NC(=O)[C@@H](CCCCN)NC(=O)[C@H](CCCNC(=N)N)NC(=O)[C@@H](CCCNC(=N)N)NC(=O)[C@H](Cc2c[nH]c3ccccc23)NC(=O)[C@@H](CC(C)C)NC(=O)[C@H](Cc2c[nH]cn2)NC1=O [SEQ ID NO:110, [RRKWLHLW]] (cyclo([dR]R[dK]W[dL]H[dL]W))",20 µg/mL,20 µg/mL,25 µg/mL,–,–,100,40 µg/mL,–,15 µg/mL,–,100 µg/mL,25,40
"CC(=O)N[C@H](CCCCN)C(=O)N[C@@H](CCCCN)C(=O)N[C@H](CCCCN)C(=O)N[C@@H](Cc1c[nH]c2ccccc12)C(=O)N[C@H](CC(C)C)C(=O)N[C@@H](Cc1c[nH]c2ccccc12)C(=O)N[C@H](CC(C)C)C(=O)N[C@H](Cc1c[nH]c2ccccc12)C(N)=O [SEQ ID NO:25, Ac-KKKWLWLW-CONH2] (Ac-[dK]K[dK]W[dL]W[dL][dW]-NH2)",75 µg/mL,80 µg/mL,100 µg/mL,80 µg/mL,–,–,100 µg/mL,–,20 µg/mL,–,100 µg/mL,–,–
"CC(=O)N[C@H](CCCNC(=N)N)C(=O)N[C@@H](CCCNC(=N)N)C(=O)N[C@H](CCCCN)C(=O)N[C@@H](Cc1c[nH]c2ccccc12)C(=O)N[C@H](CC(C)C)C(=O)N[C@@H](Cc1c[nH]c2ccccc12)C(=O)N[C@H](CC(C)C)C(=O)N[C@@H](Cc1c[nH]c2ccccc12)C(N)=O [SEQ ID NO:136, Ac-RRKWLWLW-NH2] (Ac-[dR]R[dK]W[dL]W[dL]W-NH2)",22 µg/mL,40 µg/mL,70 µg/mL,–,–,–,100 µg/mL,–,6 µg/mL,–,100 µg/mL,–,–
"CC(C)C[C@@H]1NC(=O)[C@@H](Cc2c[nH]c3ccccc23)NC(=O)[C@H](CCCCN)NC(=O)[C@@H](CCCNC(=N)N)NC(=O)[C@H](CCCCN)NC(=O)[C@@H](Cc2c[nH]c3ccccc23)NC(=O)[C@H](CC(C)C)NC(=O)[C@@H](Cc2c[nH]cn2)NC1=O [SEQ ID NO:101, [KRKWLHLW]] (cyclo(K[dR]K[dW]L[dH]L[dW]))",80 µg/mL,80 µg/mL,40 µg/mL,–,–,100,40 µg/mL,–,12 µg/mL,–,100 µg/mL,40,40
"CC(C)C[C@H]1C(=O)N[C@H](Cc2c[nH]c3ccccc23)C(=O)N(C)[C@@H](CC(C)C)C(=O)N[C@H](Cc2c[nH]c3ccccc23)C(=O)N[C@@H](CCCNC(=N)N)C(=O)N[C@H](CCCNC(=N)N)C(=O)N[C@@H](CCCCN)C(=O)N[C@H](Cc2c[nH]c3ccccc23)C(=O)N1C [SEQ ID NO:139, c[RRKW^MeLW^MeLW]] (cyclo(R[dR]K[dW][NMeL][dW][NMeL][dW]))",5 µg/mL,10 µg/mL,5 µg/mL,–,–,–,30 µg/mL,–,5 µg/mL,–,100 µg/mL,–,–
"CC(C)C[C@H]1NC(=O)[C@H](Cc2c[nH]c3ccccc23)NC(=O)[C@@H](CO)NC(=O)[C@H](Cc2c[nH]cn2)NC(=O)[C@@H]([C@H](C)O)NC(=O)[C@H](Cc2c[nH]c3ccccc23)NC(=O)[C@@H](CC(C)C)NC(=O)[C@H](Cc2c[nH]c3ccccc23)NC1=O [SEQ ID NO:6, cyclo-(D-Thr-His-D-Ser-Trp-D-Leu-Trp-D-Leu-Trp)] (cyclo(H[dS]W[dL]W[dL]W[dT]))",> 280 µg/mL,100 µg/mL,100 µg/mL,100 µg/mL,–,100,100 µg/mL,–,100 µg/mL,–,–,100,100
"CC(C)C[C@H]1NC(=O)[C@H](Cc2c[nH]c3ccccc23)NC(=O)[C@@H](CC(C)C)NC(=O)[C@H](Cc2c[nH]c3ccccc23)NC(=O)[C@@H](CC(=O)O)NC(=O)CNC(=O)[C@@H](CCCNC(=N)N)NC(=O)[C@H](Cc2c[nH]c3ccccc23)NC1=O [SEQ ID NO:7, RGDWLWLW] (cyclo([dR]G[dD]W[dL]W[dL]W))",> 280 µg/mL,70 µg/mL,100 µg/mL,100 µg/mL,–,100,100 µg/mL,–,100 µg/mL,–,–,100,100
